The results in this text go back to ChEMBL document CHEMBL5120756, “Mycobacterial Membranes as Actionable Targets for Lipid-Centric Therapy in Tuberculosis” (J Med Chem, 2022).

Molecules are shown by their SMILES. pIC50: −log10 of the molar value.

One may read the pIC50 as the IC50 on a negative log10 scale, so that one unit is a factor of ten.

The test deals with Salmonella typhimurium. Description: Antibacterial activity against salmonella typhimurium infected in gentamicin-treated mouse RAW264.7 macrophages assessed as reduction of bacterial accumulation with macrophage measured after 17.5 hrs of post infection by SAFIRE assay. The class given is functional, organism-based, Salmonella enterica subsp. enterica serovar Typhimurium. The following applies: Salmonella enterica, RAW264.7, 17.5 h.

`OC(COc1ccc(C2C3CC4CC(C3)CC2C4)cc1)CN1CCCCC1` (stereo unspecified): the pIC50 was 6.92.
